Assay results reported in EP3335720A1, “C-DI-GMP BINDING PEPTIDES” (Universität Basel, priority 2016, dated 2018).

Experiments:
P. aeruginosa (PAO1) = experiment: P. aeruginosa growth in presence of peptides (growth curves); type: cell-based; conditions: 64 mg/L peptides, 37°C, MHB; Figure 10
Method: Growth curves were obtained by growing P. aeruginosa (PAO1) in 96-well plates (Falcon #353072) in presence of 64 mg/L peptides at 37°C with agitation in Mueller-Hinton II Broth (MHB) (BD #212322) using an Epoch 2 microplate reader (BioTek).

c-di-GMP = experiment: Binding affinity of peptides to c-di-GMP by isothermal titration calorimetry (ITC); conditions: for Dissociation constant: pH 8.0
Method: Binding affinities of peptides to c-di-GMP were measured using isothermal titration calorimetry (ITC) on a VP-ITC MicroCalorimeter (MicroCal, Northampton, MA, USA). Peptides, c-di-GMP and buffer (50 mM Tris-HCl, pH 8.0, 100 mM NaCl) were degassed for 15 min prior to filling into sample cell and syringe. All experiments were carried out at a temperature of 15°C. The data were evaluated using ITC Data Analysis in ORIGIN provided by the manufacturer.

[1] = tested on: P. aeruginosa PAO1 biofilms; type: cell-based
Method: The parameter "MBIC50", as used herein, is defined as the peptide concentration leading to 50% biofilm reduction in a standard biofilm assay. Preferably, the medium used for the assay is Mueller-Hinton broth (MHB), since most bacteria can be grown in this medium, and it allows a reliable comparison of MBIC values. MBIC50 values in accordance with the invention are obtained by growing P. aeruginosa at 37°C in presence of different concentrations of peptides, without agitation, for 24 h, followed by staining the adherent biofilm, dissolving the biofilm and measuring the OD600.
The standard biofilm assay (O'Toole G.A., Pratt L.A., Watnick P.I., Newman D.K., Weaver V.B., and Kolter R. 1999. Genetic approaches to study of biofilms. Methods Enzymol. 310: 91-109) was followed with minor modification, i.e. Mueller-Hinton II broth (MHB) (Becton Dickinson #212322) was used instead of lysogenic broth (LB) or minimal medium. MHB is preferred by The European Committee on Antimicrobial Susceptibility Testing (EUCAST) as the medium for MIC determination because most bacteria can be grown in this medium, which allows a more reliable MIC values comparisons. The MBIC50 was defined as the peptide concentration leading to 50% biofilm reduction (de la Fuente-Nunez C., Korolik V., Bains M., Nguyen U., Breidenstein E. B. M., Horsman S., Lewenza S., Burrows L., Hancock, R. E. W. (2012) Inhibition of bacterial biofilm formation and swarming motility by a small synthetic cationic peptide. 56: 2696-2704). MBIC50 values were obtained by growing P. aeruginosa (PAO1) biofilms in 96-well plates (Falcon #353072) in presence of peptides at 37°C without agitation in MHB. After 24 hours, bacterial growth was evaluated by measuring the OD600 in a microtiter plate reader (EL800, BioTek). Afterwards, the plates were rinsed three times with demineralized water to remove non-attached bacteria. The adherent biofilms were stained with 0.1% Crystal Violet and subsequently dissolved in 20% acetic acid. Dissolved biofilms were quantified by measuring the OD600 in a microtiter plate reader.

in vitro [2] = type: in vitro ADME, P. aeruginosa PAO1; conditions: cells or culture medium
Method: (§1) P. aeruginosa PAO1 lysate, which was used to test peptide stability, was prepared by the following procedure. 500 ml of cells grown overnight at 37°C were harvested by centrifugation at 5000 rpm, 10 min at 4°C. Pellets were resuspended in 60 ml PBS (Gibco) and centrifuged at 5000 rpm, 10 min at 4°C. Pellets were resuspended again in 20 ml PBS and centrifuged at 5000 rpm, 10 min at 4°C. Cells were disrupted using high-pressure cell disrupter (Stansted Fluid Power). Cell lysate was separated from cell debris by centrifugation at 14,000 rpm for 20 min at 4°C. Lysate was diluted 10 fold to yield a protein content of about 1 mg/ml. The lysate was used for all experiments described below.
The stability of peptides was tested against P. aeruginosa PAO1 cell lysate. […] Samples were analyzed on 10-20% Mini-PROTEAN tris-tricine gels (BIO-RAD #4563115) according to manufacturer's recommended protocol. Band intensities were quantified using the program ImageJ (Schneider, C. A., Rasband, W. S. and Eliceiri, K. W. 2012. NIH Image to ImageJ: 25 years of image analysis. Nature methods. 9: 671-675).
The protocol mentioned above was also used to compare stability of peptides in the presence of c-di-GMP. […] 14 µl samples were removed at 2, 4, 6 and 8 hours after incubation at 37°C and analyzed on tris-tricine gels as described above.

in vitro [3] = type: in vitro ADME, P. aeruginosa PAO1
Method: as §1
The stability of peptides was tested against P. aeruginosa PAO1 cell lysate. About 1 to 3 µg of peptides were incubated with 5 µl P. aeruginosa PAO1 cell lysate or PBS (untreated controls) at 37°C. After 2 hours, 6 µl of 2x SDS sample buffer was added to the samples and heated to 95°C for 5 min. Samples were analyzed on 10-20% Mini-PROTEAN tris-tricine gels (BIO-RAD #4563115) according to manufacturer's recommended protocol. Band intensities were quantified using the program ImageJ (Schneider, C. A., Rasband, W. S. and Eliceiri, K. W. 2012. NIH Image to ImageJ: 25 years of image analysis. Nature methods. 9: 671-675).

epithelial HeLa cells = experiment: Cytotoxicity assays: resazurin reduction assay and LDH release assay; type: cell-based, human; conditions: 24 hours, Figures 11 and 12
Method: The cytotoxicity of the peptides was determined with a Resazurin cell viability assay (Sigma #R7017). In a 96-well plate (Corning #3904), monolayers of epithelial HeLa ATCC CCL-2 cells were grown in 100 µl growth medium (DMEM (Sigma #D5796) containing 10% FCS). Afterwards, the medium was removed and either replaced by DMEM/10% FCS containing 2-fold serial diluted peptides with a highest concentration of 256 mg/L. After 24 hours, the medium was removed and replaced by 100 µl fresh growth medium. 1% Triton X-100 (Sigma) was used as positive lysis control. 20 µl of resazurin solution (0.1 mg/ml) was added. After 2 hours, the fluorescence signal was recorded using a microplate reader (Synergy H4 BioTek) with an excitation wavelength of 560 nm and emission wavelength 590 nm.
Cells were prepared and treated with peptides as described for the resazurin reduction assay. 24 hours after peptide treatment, control wells were treated with 1% Triton X-100 (Sigma) as lysis control. LDH release was measured using the LDH Cytotoxicity Detection Kit (Clontech). Absorbance was measured at 490 nm using a microplate reader (Synergy H4 BioTek). The percentage of cell death was calculated as follows: (LDH peptide treated - LDH untreated)/(LDH total lysis - LDH untreated)* 100.

[4] = Table 3, peptides with amino acid substitution, 15°C

In the case of “Ac-DRRRFNSADYKGPRRAKAD-NH2 [SEQ ID NO: 28, AC-DRRRFNSADYKGPRRAKAD-NH2]”, the “effect on bacterial growth” value (P. aeruginosa (PAO1)) is reported as “do not show an effect on bacterial growth”, the Dissociation constant (c-di-GMP; [4]) is reported as “no binding detected” and the “binding affinity to c-di-GMP, in words” value (c-di-GMP; compared to the core sequence / peptide of SEQ ID NO: 12) is reported as “significantly reduced binding affinities”.
With “Ac-DRRRFNSADYKGPRRAKAD-NH2 [compound 28]” the MBIC50 ([1]; PAO1, 24 h) was 1 to 2 mg/L, the remaining at 2 h (in vitro [2]) was 23% and the “Remaining peptide after 2 hours” value (in vitro [3]) was 11%. For the same substance, the Dissociation constant (c-di-GMP; [4]) was “no binding”.
With “Ac-DRRRFNSADYKGPRRRKAD-NH2 [SEQ ID NO: 12, AC-DRRRFNSADYKGPRRRKAD-NH2]” the “MBIC50 compared to the MBIC50 of the peptide of SEQ ID NO: 28” value ([1]; lower) was “about 4 fold”, the “effect on bacterial growth” value (P. aeruginosa (PAO1)) was “do not show an effect on bacterial growth” and the remaining at 2 h (in vitro [2]) was 32%. For the same substance, the “Remaining peptide after 2 hours” value (in vitro [3]) was 11%, the Kd (c-di-GMP; Table 3, peptides with amino acid substitution, 15°C, pH 8.0, read-out: Dissociation constant) was 0.17 µM and the “concentration up to which no toxic effect was shown” value (epithelial HeLa cells) was ≤ 64 µg/mL.
